From the CheMixHub viscosity set
± gives the uncertainty stated by the source.

Experiment: xn = mol fraction of the nth substance listed

Clc1ccccc1Cl + Nc1cccc(Cl)c1
viscosity [mPa·s], 100 kPa
Settings	x2 = 0.1053	x2 = 0.2011	x2 = 0.3045	x2 = 0.4064	x2 = 0.507	x2 = 0.6062	x2 = 0.7041	x2 = 0.8007	x2 = 0.906
303.15 K	1.568 ± 0.012	1.866 ± 0.014	2.184 ± 0.016	2.495 ± 0.018	2.799 ± 0.02	3.097 ± 0.022	3.389 ± 0.024	3.674 ± 0.026	3.983 ± 0.028
308.15 K	1.444 ± 0.012	1.71 ± 0.013	1.995 ± 0.015	2.274 ± 0.017	2.546 ± 0.019	2.812 ± 0.021	3.072 ± 0.023	3.326 ± 0.025	3.6 ± 0.027
313.15 K	1.319 ± 0.011	1.555 ± 0.013	1.807 ± 0.014	2.053 ± 0.016	2.293 ± 0.018	2.527 ± 0.019	2.756 ± 0.021	2.979 ± 0.023	3.22 ± 0.025
318.15 K	1.206 ± 0.011	1.412 ± 0.012	1.629 ± 0.013	1.842 ± 0.015	2.048 ± 0.017	2.25 ± 0.018	2.447 ± 0.02	2.639 ± 0.021	2.845 ± 0.023

CCCCOC(C)=O + CCCCCCCCC
298.15 K, 101.3 kPa
Settings	viscosity [mPa·s]
x1 = 0.0459	0.6602 ± 0.006
x1 = 0.1339	0.6474 ± 0.0059
x1 = 0.2324	0.6291 ± 0.0058
x1 = 0.3814	0.6318 ± 0.0058
x1 = 0.4218	0.6304 ± 0.0058
x1 = 0.4836	0.6314 ± 0.0058
x1 = 0.5989	0.632 ± 0.0058
x1 = 0.658	0.6382 ± 0.0059
x1 = 0.7574	0.6466 ± 0.0059
x1 = 0.8386	0.6563 ± 0.006
x1 = 0.9486	0.6723 ± 0.0061

CC(C)c1ccccc1 + CCc1ccccc1
101.33 kPa, x1 = 0.4675
Settings	viscosity [mPa·s]
293.15 K	0.696 ± 0.004
313.15 K	0.545 ± 0.003

CCCCOC(C)=O + c1ccccc1
viscosity [mPa·s], 101 kPa
Settings	298.15 K	308.15 K
x1 = 0.0487	0.601 ± 0.005	0.527 ± 0.005
x1 = 0.1494	0.598 ± 0.005	0.528 ± 0.005
x1 = 0.2494	0.598 ± 0.005	0.532 ± 0.005
x1 = 0.3494	0.6 ± 0.005	0.536 ± 0.005
x1 = 0.4454	0.604 ± 0.005	0.541 ± 0.005
x1 = 0.4954	0.607 ± 0.005	0.544 ± 0.005
x1 = 0.5489	0.611 ± 0.005	0.548 ± 0.005
x1 = 0.6497	0.62 ± 0.005	0.556 ± 0.005
x1 = 0.7503	0.632 ± 0.005	0.565 ± 0.005
x1 = 0.8496	0.647 ± 0.005	0.575 ± 0.005
x1 = 0.9424	0.663 ± 0.005	0.586 ± 0.005

Oc1ccccc1Cl + c1ccncc1
viscosity [mPa·s], 101 kPa
Settings	293.15 K	303.15 K	313.15 K
x1 = 0.07182	1.158 ± 0.011	0.994 ± 0.01	0.863 ± 0.009
x1 = 0.1451	1.459 ± 0.014	1.249 ± 0.012	1.073 ± 0.01
x1 = 0.2211	1.903 ± 0.019	1.588 ± 0.015	1.351 ± 0.013
x1 = 0.311	2.62 ± 0.026	2.152 ± 0.021	1.773 ± 0.017
x1 = 0.395	3.69 ± 0.04	2.96 ± 0.03	2.31 ± 0.023
x1 = 0.4815	5.28 ± 0.06	3.92 ± 0.04	2.98 ± 0.029
x1 = 0.5607	6.82 ± 0.08	4.72 ± 0.05	3.53 ± 0.04
x1 = 0.6186	7.8 ± 0.1	5.22 ± 0.06	3.78 ± 0.04
x1 = 0.6723	8.23 ± 0.11	5.4 ± 0.06	3.84 ± 0.04
x1 = 0.7248	8.16 ± 0.11	5.36 ± 0.06	3.78 ± 0.04
x1 = 0.7794	7.58 ± 0.1	5.04 ± 0.06	3.55 ± 0.04
x1 = 0.8837	5.97 ± 0.08	4.11 ± 0.05	2.94 ± 0.03

Oc1ccccc1Cl + C1COCCO1
101 kPa
Settings	viscosity [mPa·s]
298.15 K, x1 = 0.2	1.965 ± 0.12
298.15 K, x1 = 0.4	3.235 ± 0.064
298.15 K, x1 = 0.6	5.018 ± 0.05
298.15 K, x1 = 0.8	5.556 ± 0.085
308.15 K, x2 = 0.1	2.996 ± 0.037
308.15 K, x2 = 0.2	3.489 ± 0.043
308.15 K, x2 = 0.4	3.32 ± 0.041
308.15 K, x2 = 0.5	2.866 ± 0.035
308.15 K, x2 = 0.6	2.311 ± 0.029
308.15 K, x2 = 0.7	1.849 ± 0.023
308.15 K, x2 = 0.8	1.478 ± 0.019
308.15 K, x2 = 0.9	1.182 ± 0.015

[K+].[OH-] + O
323.15 K, 101 kPa
Settings	viscosity [mPa·s]
x1 = 0.009	0.586 ± 0.018
x1 = 0.026	0.67 ± 0.02
x1 = 0.059	0.853 ± 0.026
x1 = 0.08	1.01 ± 0.03
x1 = 0.1	1.26 ± 0.04
x1 = 0.2	1.75 ± 0.05
x1 = 0.21	2.84 ± 0.09
x1 = 0.3	4.62 ± 0.14

CCCCCCCCCCCCCCCCCCCC + CCCCCCCCCCCCCCCC
viscosity [mPa·s], 101.3 kPa
Settings	x1 = 0.2	x1 = 0.4	x1 = 0.5	x1 = 0.599	x1 = 0.8
293.2 K	3.875 ± 0.043	–	–	–	–
303.2 K	3.045 ± 0.034	3.481 ± 0.039	3.77 ± 0.042	4.065 ± 0.046	–
313.2 K	2.459 ± 0.028	2.785 ± 0.031	3.011 ± 0.034	3.223 ± 0.036	3.602 ± 0.04

CCCCOC(C)=O + O
303.15 K, 101 kPa
Settings	viscosity [mPa·s]
x2 = 0.0201	0.64 ± 0.005
x2 = 0.04	0.641 ± 0.005
x2 = 0.0599	0.639 ± 0.005

CCCCOC(C)=O + C1COCCO1
303.15 K, 101.3 kPa
Settings	viscosity [mPa·s]
x2 = 0.1002	0.6618 ± 0.0045
x2 = 0.1988	0.682 ± 0.0046
x2 = 0.2997	0.7051 ± 0.0047
x2 = 0.3963	0.7333 ± 0.0048
x2 = 0.4977	0.7684 ± 0.005
x2 = 0.6024	0.809 ± 0.0052
x2 = 0.7009	0.859 ± 0.0055
x2 = 0.7968	0.9174 ± 0.0058
x2 = 0.9016	0.9976 ± 0.0063

N#CCCl + ClC(Cl)(Cl)Cl
viscosity [mPa·s], 101 kPa
Settings	293.15 K	298.15 K	303.15 K	313.15 K	323.15 K
x1 = 0.014	0.983 ± 0.026	0.907 ± 0.024	0.844 ± 0.022	0.749 ± 0.02	0.672 ± 0.018
x1 = 0.087	0.939 ± 0.025	0.867 ± 0.023	0.803 ± 0.021	0.71 ± 0.019	0.633 ± 0.017
x1 = 0.222	0.914 ± 0.024	0.841 ± 0.022	0.78 ± 0.02	0.688 ± 0.018	0.615 ± 0.016

CCCCCCCCCCCCCCCCCCCC + CCCCCCCCCC
viscosity [mPa·s], 101.3 kPa
Settings	x2 = 0.201	x2 = 0.4	x2 = 0.5	x2 = 0.6	x2 = 0.8
293.15 K	–	–	–	–	1.56 ± 0.02
303.2 K	–	–	2.4 ± 0.03	2.01 ± 0.02	1.31 ± 0.02
313.2 K	3.14 ± 0.04	2.38 ± 0.03	1.95 ± 0.02	1.68 ± 0.02	1.12 ± 0.01

O=C(O)c1cc(O)c(O)c(O)c1 + CO
viscosity [mPa·s], 101 kPa
Settings	293.15 K	298.15 K	303.15 K	308.15 K	313.15 K
x1 = 0.0019	0.634 ± 0.017	0.595 ± 0.016	0.551 ± 0.015	0.517 ± 0.014	0.491 ± 0.013
x1 = 0.0038	0.664 ± 0.018	0.62 ± 0.016	0.576 ± 0.015	0.542 ± 0.014	0.505 ± 0.013
x1 = 0.0058	0.699 ± 0.019	0.66 ± 0.018	0.604 ± 0.016	0.562 ± 0.015	0.528 ± 0.014
x1 = 0.0078	0.734 ± 0.019	0.684 ± 0.018	0.635 ± 0.017	0.591 ± 0.016	0.55 ± 0.015

C[NH2+]C(C)Cc1ccc2c(c1)OCO2.[Cl-] (stereo not drawn) + O
viscosity [mPa·s], 100 kPa
Settings	293.15 K	298.15 K	303.15 K	308.15 K	313.15 K
x1 = 0.001729	1.063 ± 0.022	0.942 ± 0.02	0.842 ± 0.018	0.758 ± 0.016	0.686 ± 0.014
x1 = 0.003622	1.125 ± 0.023	0.995 ± 0.021	0.888 ± 0.019	0.798 ± 0.017	0.721 ± 0.015
x1 = 0.00541	1.18 ± 0.025	1.042 ± 0.022	0.929 ± 0.019	0.834 ± 0.017	0.752 ± 0.016
x1 = 0.006269	1.206 ± 0.025	1.065 ± 0.022	0.949 ± 0.02	0.851 ± 0.018	0.767 ± 0.016
x1 = 0.0072	1.233 ± 0.026	1.088 ± 0.023	0.969 ± 0.02	0.869 ± 0.018	0.783 ± 0.016
